# In article PMC8854749, “Celastrol Inhibits Canine Mammary Tumor Cells by Inducing Apoptosis via the Caspase Pathway” (Frontiers in Veterinary Science, 2022):
# Peptide text beside a SMILES is read from it. * marks the point of attachment. Cbz = O=C(OCc1ccccc1)*; CH2F = FC*
# How the values were obtained:
# Assay in all cases: Western blot of apoptosis- and cell cycle-related proteins
# Assay type in all cases: cell-based, canine
# CIPp cells [1] = settings: inhibitor with 0.9 μM celastrol, 24 h
# CMT-7364 cells [2] = settings: inhibitor with 0.9 μM celastrol, 24 h
# CIPp cells [3] = settings: inhibitor with celastrol, 24 h, vs celastrol alone
# Description: (§1) The CMT-7364 and CIPp cells were treated with different concentrations of Caspase inhibitor Z-V-F and/or celastrol for 24 h, and the cells were lysed with RIPA lysis buffer on ice. The protein was extracted according to the manufacturer's instructions, and protein concentration was determined by the BCA protein concentration assay kit. The loading amount of 20 μg protein in each group was separated by 10% SDS-PAGE, the separated protein was transferred to polyvinylidene fluoride membrane. After blocking with 5% skimmed milk for 1 h, the membrane was washed two times with 0.5% PBS-Tween 20 (PBS-T), then the membrane with the primary antibody was incubated overnight in a shaker at 4°C. Primary antibodies include β-actin (1:2,000), p65 (1:1,000), NF-κB (1:1,000), Caspase-9 (1:1,000), Caspase-3 (1:1,000), Bax (1:2,000), Bcl-2 (1:1,000), Cyclin D1 (1:1,000), p21 (1:1,000), and p27 (1:1,000). After washing 3 times with PBS-T buffer for 10 min each time, the membrane was incubated with HRP-conjugated secondary antibody at 37°C for 30 min. Secondary antibodies include anti-mouse IgG antibody (1:5,000), anti-rabbit IgG antibody (1:2,000~1:4,000). The membrane was washed 3 times with PBS-T for 10 min each time. Finally, it was detected by an enhanced chemiluminescence detection system, and the results were quantified by ImageJ.
# CMT-7364 cells [4] = settings: inhibitor with celastrol, 24 h, vs celastrol alone
# Description: as §1
smiles,measurement,setting,value
"COC(=O)C[C@H](NC(=O)[C@H](C)NC(=O)[C@@H](NC(=O)OCc1ccccc1)C(C)C)C(=O)CF [Z-V-F, Z-VAD-FMK] (Cbz-Val-Ala-Asp(OMe)-CH2F)",effect on 0.9 μM celastrol-induced apoptosis,CIPp cells [1],block
same,effect on 0.9 μM celastrol-induced apoptosis,CMT-7364 cells [2],block
same,expression of anti-apoptotic protein Bcl-2,CIPp cells [3],increased
same,expression of pro-apoptotic protein Bax induced by celastrol,CIPp cells [3],decreased
same,expression of anti-apoptotic protein Bcl-2,CMT-7364 cells [4],increased
same,expression of pro-apoptotic protein Bax induced by celastrol,CMT-7364 cells [4],decreased
